The target in series [1] is T1, MAGL (Homo sapiens, UniProt Q99685).
T1 sequence (Q99685 1-303): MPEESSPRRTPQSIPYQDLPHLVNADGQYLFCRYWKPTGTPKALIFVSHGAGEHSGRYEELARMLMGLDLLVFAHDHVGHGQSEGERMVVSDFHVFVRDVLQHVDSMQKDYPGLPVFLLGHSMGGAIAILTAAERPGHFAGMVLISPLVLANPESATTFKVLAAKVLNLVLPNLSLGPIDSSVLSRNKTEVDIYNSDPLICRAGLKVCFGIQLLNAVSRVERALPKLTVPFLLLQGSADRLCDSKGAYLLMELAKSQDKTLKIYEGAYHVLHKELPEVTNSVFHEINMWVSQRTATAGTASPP
The experiment in a line: In vitro competitive substrate hydrolysis enzyme activity assay (pNPA), HEK293 cell lysates. It is filed as biochemical. The arrangement: expressed in transfected cells; host or cells: HEK293. Particulars: HEK293 lysate. As for the experimental part:
HEK293 cell lysates expressing recombinant human MAGL enzyme and 4-nitrophenyl acetate (pNPA) substrate were diluted separately in 50 mM HEPES (pH 7.0) containing 200 mM KCl and 1 mM EDTA. Lysates (50 μL, ˜1.2 μg total protein) were preincubated with varying concentrations of inhibitors at 25° C. After 30 min, 2×pNPA substrate (50 μL, 2.5 mM) was added and the rate of substrate turnover was monitored by measuring the increase in absorbance at wavelength 405 nm for 20 minutes at 25° C. using a Biotek Neo2 plate reader. The mean velocity was converted to percent enzyme activity following background subtraction and normalization to DMSO controls. IC50 values were determined by fitting percent enzyme activities to a non-linear regression, 4-parameter, sigmoidal dose response function in Prism GraphPad.

For series [2], the target named is T1, MAGL. The experiment in a line: In vitro competitive activity-based protein profiling, PC3 human cell membrane proteomes. Conditions: human PC3 membrane proteome; for inhibition at 1 µM: read-out: MAGL % inh. 1 μM (human PC3). Further details: endogenous in cells; host or cells: PC3 human cells (membrane proteome). It is filed as biochemical. The method, boiled down:
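Competitive ABPP in PC3 membrane proteome (2.0 mg/mL protein): inhibitors preincubated 30 min at 37° C, then JW912-Bodipy probe added for 30 min at room temperature. MAGL band fluorescence after SDS-PAGE normalised to DMSO; IC50 from 4-parameter sigmoidal fit.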

Series [3] relates to cryopreserved human hepatocytes. As to the kind of experiment: In vitro human hepatocyte stability. It is filed as in vitro ADME. Conditions: human hepatocytes 0.5×10^6 cells/mL, 1 μM. As for the experimental part:
The metabolic stability of test articles (1 μM) in commercially sourced, pooled donor, cryopreserved human hepatocytes (0.5×10^6 cells/mL) was determined in duplicate. The CLint reactions (250 μL) were initiated by addition of test compound. Aliquots (25 μL) were taken at 0, 15, 30, 45, 60, 90, 120 and 240 minutes and then protein crashed with ice-cold acetonitrile containing internal standard then centrifuged (3220 g for 25 minutes). Supernatant was used for LC-MS/MS analysis. The in vitro half-life (in vitro t½) was determined from the slope value: in vitro t1/2=−0.693/k. Conversion of the in vitro t1/2 (in min) into the scale-up unbound intrinsic clearance (Scaled-up unbound CLint, in mL/min/kg) was done using the following equation (mean of duplicate determinations), with data shown in Table 5: Scaled-up unbound CLint=kV/N×scaling factor. V=incubation volume (0.25 mL); N=number of hepatocytes per well ([…]). Scaling factors for in vivo intrinsic clearance prediction are listed below: […]

The source of these data is patent US20240018120A1, “MAGL INHIBITORS” (H. LUNDBECK A/S, priority 2020, published 2024).

Each structure is given as a SMILES string.

Broadly, the IC50 is the concentration needed to halve the response being measured. A high value points to weaker potency. Regarding `O=C(OC(C(F)(F)F)C(F)(F)F)N1CCC2(CC1)CC2C(=O)N1CCc2nc(C3CC3)ncc2C1` (single isomer, unassigned) [Example 63, 1,1,1,3,3,3-hexafluoropropan-2-yl (R or S)-1-(2-cyclopropyl-5,6,7,8-tetrahydropyrido[4,3-d]pyrimidine-6-carbonyl)-6-azaspiro[2.5]octane-6-carboxylate], the IC50 in series [1] was determined as 0.0169 µM. In series [2], the inhibition at 1 µM turned out to be 100% and the IC50 stood at 0.007 µM.
With `O=C(Nc1cncc(Cl)c1)C1CC12CCN(C(=O)OC(C(F)(F)F)C(F)(F)F)CC2` (single isomer, unassigned) [Example 66, 1,1,1,3,3,3-hexafluoropropan-2-yl (R or S)-1-((5-chloropyridin-3-yl)carbamoyl)-6-azaspiro[2.5]octane-6-carboxylate], the IC50 in series [1] was 0.00102 µM. Moreover, in series [2], the inhibition at 1 µM turned out to be 100% and the IC50 was 0.0042 µM.
In series [1], `O=C(Nc1cccc(C(F)(F)F)n1)C1CC12CCN(C(=O)OC(C(F)(F)F)C(F)(F)F)CC2` (single isomer, unassigned) [Example 72, 1,1,1,3,3,3-hexafluoropropan-2-yl (R or S)-1-((6-(trifluoromethyl)pyridin-2-yl)carbamoyl)-6-azaspiro[2.5]octane-6-carboxylate] showed an IC50 of 0.00617 µM. The inhibition at 1 µM in series [2] was determined as 100%.
In the case of `O=C(NCc1cccc(C(F)(F)F)n1)C1CC12CCN(C(=O)OC(C(F)(F)F)C(F)(F)F)CC2` (single isomer, unassigned) [Example 75, 1,1,1,3,3,3-hexafluoropropan-2-yl (R or S)-1-(((6-(trifluoromethyl)pyridin-2-yl)methyl)carbamoyl)-6-azaspiro[2.5]octane-6-carboxylate], the IC50 in series [1] amounted to 0.00911 µM. Moreover, in series [2], the inhibition at 1 µM was determined as 100%.
Turning to `O=C(NCc1cccc(C(F)(F)F)n1)C1CC12CCN(C(=O)OC(C(F)(F)F)C(F)(F)F)CC2` (single isomer, unassigned) [Example 76, 1,1,1,3,3,3-hexafluoropropan-2-yl (R or S)-1-(((6-(trifluoromethyl)pyridin-2-yl)methyl)carbamoyl)-6-azaspiro[2.5]octane-6-carboxylate], the IC50 was determined as 0.00241 µM in series [1] and 0.0035 µM in series [2].
In the case of `O=C(Nc1ccc(C(F)(F)F)nc1)C1CC12CCN(C(=O)OC(C(F)(F)F)C(F)(F)F)CC2` (single isomer, unassigned) [Example 78, 1,1,1,3,3,3-hexafluoropropan-2-yl (R or S)-1-((6-(trifluoromethyl)pyridin-3-yl)carbamoyl)-6-azaspiro[2.5]octane-6-carboxylate], the IC50 in series [1] turned out to be 0.00299 µM; in series [2], 0.008 µM.
`Cc1ccc(NC(=O)C2CC23CCN(C(=O)OC(C(F)(F)F)C(F)(F)F)CC3)cn1` (single isomer, unassigned) [Example 81, 1,1,1,3,3,3-hexafluoropropan-2-yl (R or S)-1-((6-methylpyridin-3-yl)carbamoyl)-6-azaspiro[2.5]octane-6-carboxylate]: the IC50 worked out at 0.000864 µM in series [1] and 0.00087 µM in series [2]. For the same compound, in series [2], the inhibition at 1 µM stood at 100%.
Consider `O=C(Nc1cccnc1C(F)(F)F)C1CC12CCN(C(=O)OC(C(F)(F)F)C(F)(F)F)CC2` (single isomer, unassigned) [Example 84, 1,1,1,3,3,3-hexafluoropropan-2-yl (R or S)-1-((2-(trifluoromethyl)pyridin-3-yl)carbamoyl)-6-azaspiro[2.5]octane-6-carboxylate], for which the IC50 in series [1] was 0.0101 µM. Besides, in series [2], the inhibition at 1 µM was found to be 100% and the IC50 was found to be 0.0089 µM.
Turning to `O=C(Nc1cccnc1C(F)(F)F)C1CC12CCN(C(=O)OC(C(F)(F)F)C(F)(F)F)CC2` (single isomer, unassigned) [Example 85, 1,1,1,3,3,3-hexafluoropropan-2-yl (R or S)-1-((2-(trifluoromethyl)pyridin-3-yl)carbamoyl)-6-azaspiro[2.5]octane-6-carboxylate], the IC50 in series [1] came to 0.167 µM; in series [2], 0.099 µM.
`O=C(NCc1cccnc1)C1CC12CCN(C(=O)OC(C(F)(F)F)C(F)(F)F)CC2` (single isomer, unassigned) [Example 87, 1,1,1,3,3,3-hexafluoropropan-2-yl (R or S)-1-((pyridin-3-ylmethyl)carbamoyl)-6-azaspiro[2.5]octane-6-carboxylate] had an IC50 in series [1] of 0.463 µM. In addition, in series [2], the inhibition at 1 µM turned out to be 100% and the IC50 was determined as 0.2 µM.
In the case of `O=C(NCc1cccnc1)C1CC12CCN(C(=O)OC(C(F)(F)F)C(F)(F)F)CC2` (single isomer, unassigned) [Example 88, 1,1,1,3,3,3-hexafluoropropan-2-yl (R or S)-1-((pyridin-3-ylmethyl)carbamoyl)-6-azaspiro[2.5]octane-6-carboxylate], the figures for the IC50 in series [1] and in series [2] were 0.0718 µM and 0.0325 µM, respectively.
With `O=C(NC(=O)C1CC12CCN(C(=O)OC(C(F)(F)F)C(F)(F)F)CC2)C1CCCCC1` (single isomer, unassigned) [Example 90, 1,1,1,3,3,3-hexafluoropropan-2-yl (R or S)-1-((cyclohexanecarbonyl)carbamoyl)-6-azaspiro[2.5]octane-6-carboxylate], the IC50 in series [1] is 0.00579 µM. For the same compound, in series [2], the inhibition at 1 µM amounted to 100% and the IC50 was determined as 0.0047 µM.
`O=C(NC(=O)C1CC12CCN(C(=O)OC(C(F)(F)F)C(F)(F)F)CC2)C1CCCCC1` (single isomer, unassigned) [Example 91, 1,1,1,3,3,3-hexafluoropropan-2-yl (R or S)-1-((cyclohexanecarbonyl)carbamoyl)-6-azaspiro[2.5]octane-6-carboxylate]: the IC50 in series [1] turned out to be 0.00599 µM; in series [2], 0.0037 µM.
In series [1], `O=C(NC(=O)C1CC12CCN(C(=O)OC(C(F)(F)F)C(F)(F)F)CC2)c1ccccc1` (single isomer, unassigned) [Example 93, 1,1,1,3,3,3-hexafluoropropan-2-yl (R or S)-1-(benzoylcarbamoyl)-6-azaspiro[2.5]octane-6-carboxylate] returned an IC50 of 0.00284 µM. In series [2], the inhibition at 1 µM is 100%.
In the case of `O=C(NC(=O)C1CC12CCN(C(=O)OC(C(F)(F)F)C(F)(F)F)CC2)c1ccccc1` (single isomer, unassigned) [Example 94, 1,1,1,3,3,3-hexafluoropropan-2-yl (R or S)-1-(benzoylcarbamoyl)-6-azaspiro[2.5]octane-6-carboxylate], the IC50 in series [1] came to 0.00323 µM; in series [2] it was 0.0051 µM.
Consider `O=C(Nc1cncnc1)C1CC12CCN(C(=O)OC(C(F)(F)F)C(F)(F)F)CC2` (single isomer, unassigned) [Example 97, 1,1,1,3,3,3-hexafluoropropan-2-yl (R or S)-1-(pyrimidin-5-ylcarbamoyl)-6-azaspiro[2.5]octane-6-carboxylate], for which the values for the IC50 in series [1] and in series [2] were 1.38 µM and 0.2 µM, respectively.
With `O=C(Nc1cnc(C(F)(F)F)nc1)C1CC12CCN(C(=O)OC(C(F)(F)F)C(F)(F)F)CC2` (single isomer, unassigned) [Example 99, 1,1,1,3,3,3-hexafluoropropan-2-yl (R or S)-1-((2-(trifluoromethyl)pyrimidin-5-yl)carbamoyl)-6-azaspiro[2.5]octane-6-carboxylate], the IC50 in series [1] amounted to 0.00552 µM; in series [2], 0.0097 µM.
For `O=C(Nc1cncs1)C1CC12CCN(C(=O)OC(C(F)(F)F)C(F)(F)F)CC2` (single isomer, unassigned) [Example 129, 1,1,1,3,3,3-hexafluoropropan-2-yl (R or S)-1-(thiazol-5-ylcarbamoyl)-6-azaspiro[2.5]octane-6-carboxylate], the “Scaled-up unbound CLint” value in series [3] is given as 53.56 mL/min/kg.
`O=C(Nc1cccnn1)[C@@H]1CC12CCN(C(=O)OC(C(F)(F)F)C(F)(F)F)CC2` [Example 5, 1,1,1,3,3,3-Hexafluoropropan-2-yl (R)-1-(pyridazin-3-ylcarbamoyl)-6-azaspiro[2.5]octane-6-carboxylate] had a half-maximal inhibitory concentration (IC50) in series [1] of 0.553 µM. Moreover, in series [2], the inhibition at 1 µM worked out at 100% and the IC50 was 0.18 µM.
